The values that follow come from ChEMBL document CHEMBL3988442, “University of Dundee, Small-Polar-MMV Screening Library” (2021).

SMILES strings stand for the structures. Values joined by “and” are separate entries in the source; they are usually repeats but may differ in a detail not shown here. Identical values can stand only once. Where only a bound is given, the exact number is not on record here.

The target in one assay is Lysine--tRNA ligase (Plasmodium falciparum (isolate 3D7), UniProt Q8IDJ8). Put plainly: Pf-KRS-1 (Lysyl-RNA Synthetase-1, KRS-1, cytosolic KRS) from Plasmodium falciparum. Inhibitor assay, 384 well plate, luminescence read. The format is functional.
In assay [1] the target is T1, Ubiquitin-activating enzyme e1, putative (Leishmania donovani (strain BPK282A1), UniProt E9BSI1).
T1 sequence (E9BSI1 whole entry): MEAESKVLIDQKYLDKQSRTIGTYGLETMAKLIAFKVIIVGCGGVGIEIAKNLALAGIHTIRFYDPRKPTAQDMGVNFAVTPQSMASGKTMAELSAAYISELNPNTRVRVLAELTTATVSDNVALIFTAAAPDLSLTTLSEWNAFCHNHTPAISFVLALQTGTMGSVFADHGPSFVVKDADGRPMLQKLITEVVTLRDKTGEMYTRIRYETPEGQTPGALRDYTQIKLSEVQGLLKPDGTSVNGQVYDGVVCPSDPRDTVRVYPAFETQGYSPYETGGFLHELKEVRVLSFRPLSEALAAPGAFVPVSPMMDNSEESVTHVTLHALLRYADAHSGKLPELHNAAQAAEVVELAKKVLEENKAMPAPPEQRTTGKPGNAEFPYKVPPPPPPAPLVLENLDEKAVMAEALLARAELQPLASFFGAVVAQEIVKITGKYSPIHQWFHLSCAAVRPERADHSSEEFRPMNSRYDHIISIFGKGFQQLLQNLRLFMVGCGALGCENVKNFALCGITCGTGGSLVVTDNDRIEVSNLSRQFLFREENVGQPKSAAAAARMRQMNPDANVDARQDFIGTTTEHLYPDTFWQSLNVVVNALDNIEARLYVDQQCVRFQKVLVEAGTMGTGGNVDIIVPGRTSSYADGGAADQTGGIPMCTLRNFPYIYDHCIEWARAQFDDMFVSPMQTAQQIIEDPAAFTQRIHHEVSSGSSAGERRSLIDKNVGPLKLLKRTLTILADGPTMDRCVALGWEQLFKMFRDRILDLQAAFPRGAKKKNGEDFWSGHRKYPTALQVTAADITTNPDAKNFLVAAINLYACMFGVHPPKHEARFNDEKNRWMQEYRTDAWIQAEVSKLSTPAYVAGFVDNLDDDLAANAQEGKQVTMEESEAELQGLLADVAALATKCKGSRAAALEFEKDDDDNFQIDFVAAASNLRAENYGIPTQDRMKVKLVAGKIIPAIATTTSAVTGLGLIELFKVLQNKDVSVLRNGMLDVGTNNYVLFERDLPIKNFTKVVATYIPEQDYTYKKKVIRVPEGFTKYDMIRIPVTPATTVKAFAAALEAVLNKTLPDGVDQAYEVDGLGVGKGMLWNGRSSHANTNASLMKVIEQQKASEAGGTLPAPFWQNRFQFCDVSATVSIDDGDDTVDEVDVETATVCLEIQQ
In words: Leishmania donovani Ubiquitin Activating Enzyme (LdE1). The class given is functional.

Assay [2] deals with T2, Aspartate--tRNA(Asp/Asn) ligase (Mycobacterium tuberculosis (strain ATCC 25618 / H37Rv), UniProt P9WFW3).
T2 sequence (P9WFW3 whole entry): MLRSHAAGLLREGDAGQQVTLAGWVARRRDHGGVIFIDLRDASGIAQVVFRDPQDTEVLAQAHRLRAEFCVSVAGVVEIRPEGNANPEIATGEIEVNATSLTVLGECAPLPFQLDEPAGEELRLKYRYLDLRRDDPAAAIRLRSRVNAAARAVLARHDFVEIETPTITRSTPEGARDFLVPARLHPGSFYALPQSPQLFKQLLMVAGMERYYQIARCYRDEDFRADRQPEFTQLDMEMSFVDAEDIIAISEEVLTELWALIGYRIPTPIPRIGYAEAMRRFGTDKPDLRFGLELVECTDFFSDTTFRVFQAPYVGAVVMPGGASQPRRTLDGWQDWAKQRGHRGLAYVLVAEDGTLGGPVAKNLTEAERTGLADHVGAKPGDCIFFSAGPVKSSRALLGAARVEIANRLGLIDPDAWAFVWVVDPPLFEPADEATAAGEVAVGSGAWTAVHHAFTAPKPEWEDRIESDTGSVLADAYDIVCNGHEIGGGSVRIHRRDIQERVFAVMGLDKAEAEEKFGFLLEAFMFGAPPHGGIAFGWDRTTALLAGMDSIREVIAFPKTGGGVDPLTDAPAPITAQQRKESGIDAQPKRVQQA
In words: Assay for Asp RNA synthetase-1 from Mycobacterium tuberculosis. The class given is functional.

Assay [3] addresses T3, Histidine--tRNA ligase (Leishmania infantum, UniProt A4I591).
T3 sequence (A4I591 whole entry): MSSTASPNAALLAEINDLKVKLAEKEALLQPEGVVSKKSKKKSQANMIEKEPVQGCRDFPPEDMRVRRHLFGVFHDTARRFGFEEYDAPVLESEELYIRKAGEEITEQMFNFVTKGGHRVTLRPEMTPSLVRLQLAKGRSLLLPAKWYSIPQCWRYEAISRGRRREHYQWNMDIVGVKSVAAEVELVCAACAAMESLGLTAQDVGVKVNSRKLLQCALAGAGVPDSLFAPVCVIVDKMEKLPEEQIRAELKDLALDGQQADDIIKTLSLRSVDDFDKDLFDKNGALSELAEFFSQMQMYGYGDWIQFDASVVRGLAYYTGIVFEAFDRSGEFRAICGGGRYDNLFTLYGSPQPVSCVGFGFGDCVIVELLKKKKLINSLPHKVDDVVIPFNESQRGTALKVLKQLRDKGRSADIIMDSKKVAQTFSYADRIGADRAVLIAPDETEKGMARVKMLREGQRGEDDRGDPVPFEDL
Put plainly: Leishmania infantum Histidine tRNA synthetase (LdHisRS). The class given is functional.

For assay [4], the target named is Protein translocase subunit SecA (Escherichia coli (strain K12), UniProt P10408). In words: Assay to Identify E. coli SecA ATPase Inhibitors. The class given is functional.
Assay [5] has as its target T4, Histidine--tRNA ligase (Trypanosoma cruzi (strain CL Brener), UniProt Q4DA54).
T4 sequence (Q4DA54 whole entry): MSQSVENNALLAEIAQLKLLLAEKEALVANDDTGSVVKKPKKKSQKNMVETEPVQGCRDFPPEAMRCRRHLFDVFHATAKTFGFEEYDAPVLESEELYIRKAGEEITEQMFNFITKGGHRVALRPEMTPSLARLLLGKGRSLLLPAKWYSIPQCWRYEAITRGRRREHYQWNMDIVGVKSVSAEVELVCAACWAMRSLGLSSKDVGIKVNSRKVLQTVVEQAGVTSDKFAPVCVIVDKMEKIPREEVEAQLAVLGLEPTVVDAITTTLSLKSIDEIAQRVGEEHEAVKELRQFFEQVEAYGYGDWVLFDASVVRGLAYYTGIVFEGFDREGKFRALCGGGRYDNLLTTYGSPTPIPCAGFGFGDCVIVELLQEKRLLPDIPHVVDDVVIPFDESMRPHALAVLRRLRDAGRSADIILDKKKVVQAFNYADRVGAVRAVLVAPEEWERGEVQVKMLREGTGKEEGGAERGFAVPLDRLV
In words: Trypanosoma cruzi histidyl tRNA synthetase (Tc-HisRS). The format is functional.

Assay [6] deals with T5, Coenzyme A biosynthesis bifunctional protein CoaBC (Mycobacterium tuberculosis (strain ATCC 25618 / H37Rv), UniProt P9WNZ1).
T5 sequence (P9WNZ1 whole entry): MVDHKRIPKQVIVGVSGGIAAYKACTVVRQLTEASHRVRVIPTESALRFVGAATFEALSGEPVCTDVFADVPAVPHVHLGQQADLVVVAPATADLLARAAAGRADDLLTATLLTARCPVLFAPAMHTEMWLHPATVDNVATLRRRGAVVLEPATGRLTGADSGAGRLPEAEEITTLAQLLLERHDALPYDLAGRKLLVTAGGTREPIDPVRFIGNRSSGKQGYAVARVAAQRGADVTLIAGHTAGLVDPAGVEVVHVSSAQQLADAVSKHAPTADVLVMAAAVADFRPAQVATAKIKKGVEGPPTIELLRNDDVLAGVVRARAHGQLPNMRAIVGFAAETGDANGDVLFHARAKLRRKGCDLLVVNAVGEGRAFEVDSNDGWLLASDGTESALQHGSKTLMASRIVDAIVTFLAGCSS
In words: Biomol Green assay for MtCoaBC inhibitor, OD650 read. The format is functional.

For a further assay, the system named is Schistosoma mansoni. Put plainly: High throughput screening of compounds against Schistosoma mansoni motility. The format is functional. The arrangement: dose or concentration left out as unconfirmed.
For the next assay, the target named is Tryptophan--tRNA ligase (Mycobacterium tuberculosis (strain ATCC 25618 / H37Rv), UniProt P9WFT3). Put plainly: Biochemical assay for Mt-TrpRS. The format is functional.
Assay [7] in a line: microbe, parasite or virus in culture. The note with it: Mycobacterium tuberculosis, 96 h, read-out: pIC50 (converted).
Assay [8] is described as follows: microbe, parasite or virus in culture. Particulars: Mycobacterium tuberculosis, 72 h, read-out: pIC50 (converted).
Assay [9] in a line: To identify inhibition of the IFN signalling (Jak-Stat) pathway via expression of an eGFP reporter gene under the control of an IFN-stimulated response element (ISRE) containing MxA promoter. The class given is functional, Homo sapiens.

Protein translocase subunit SecA, sequence (P10408 whole entry): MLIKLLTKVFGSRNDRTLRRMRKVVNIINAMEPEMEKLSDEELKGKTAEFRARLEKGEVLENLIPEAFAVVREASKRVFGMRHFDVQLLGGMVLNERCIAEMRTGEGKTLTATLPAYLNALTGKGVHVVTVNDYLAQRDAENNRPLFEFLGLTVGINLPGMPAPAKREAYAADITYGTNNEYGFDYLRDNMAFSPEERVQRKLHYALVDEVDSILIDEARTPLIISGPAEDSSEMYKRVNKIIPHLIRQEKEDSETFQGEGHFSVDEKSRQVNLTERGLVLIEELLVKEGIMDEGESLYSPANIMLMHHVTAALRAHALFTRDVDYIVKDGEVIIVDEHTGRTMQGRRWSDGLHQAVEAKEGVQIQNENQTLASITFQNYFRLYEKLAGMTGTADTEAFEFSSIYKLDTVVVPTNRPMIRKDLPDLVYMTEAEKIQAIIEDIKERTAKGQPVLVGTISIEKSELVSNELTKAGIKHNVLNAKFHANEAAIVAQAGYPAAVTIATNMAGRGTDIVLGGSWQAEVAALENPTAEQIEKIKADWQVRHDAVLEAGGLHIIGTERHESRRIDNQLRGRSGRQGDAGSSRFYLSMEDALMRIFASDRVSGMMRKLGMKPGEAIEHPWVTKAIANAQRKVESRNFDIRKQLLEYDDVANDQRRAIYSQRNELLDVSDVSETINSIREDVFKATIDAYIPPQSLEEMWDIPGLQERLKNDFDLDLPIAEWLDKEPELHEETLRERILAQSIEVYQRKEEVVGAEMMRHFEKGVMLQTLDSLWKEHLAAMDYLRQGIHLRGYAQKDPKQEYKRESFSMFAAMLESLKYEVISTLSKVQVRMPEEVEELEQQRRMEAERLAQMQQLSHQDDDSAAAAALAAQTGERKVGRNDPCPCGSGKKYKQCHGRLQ
Lysine--tRNA ligase, sequence (Q8IDJ8 whole entry): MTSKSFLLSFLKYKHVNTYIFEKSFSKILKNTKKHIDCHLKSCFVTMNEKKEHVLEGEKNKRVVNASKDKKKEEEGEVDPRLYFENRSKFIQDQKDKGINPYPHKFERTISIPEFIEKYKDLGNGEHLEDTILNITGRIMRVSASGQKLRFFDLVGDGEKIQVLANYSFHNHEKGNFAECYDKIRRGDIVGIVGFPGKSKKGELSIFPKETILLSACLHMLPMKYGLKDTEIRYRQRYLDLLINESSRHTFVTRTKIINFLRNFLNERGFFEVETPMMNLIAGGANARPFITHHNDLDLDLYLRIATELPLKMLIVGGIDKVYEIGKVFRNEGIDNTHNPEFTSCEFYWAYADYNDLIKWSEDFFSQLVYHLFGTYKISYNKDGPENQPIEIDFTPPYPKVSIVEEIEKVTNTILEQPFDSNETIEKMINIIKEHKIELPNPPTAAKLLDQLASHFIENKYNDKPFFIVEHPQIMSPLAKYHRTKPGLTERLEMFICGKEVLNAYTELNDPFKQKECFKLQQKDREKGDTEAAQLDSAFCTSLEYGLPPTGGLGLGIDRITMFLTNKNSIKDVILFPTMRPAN
Tryptophan--tRNA ligase, sequence (P9WFT3 whole entry): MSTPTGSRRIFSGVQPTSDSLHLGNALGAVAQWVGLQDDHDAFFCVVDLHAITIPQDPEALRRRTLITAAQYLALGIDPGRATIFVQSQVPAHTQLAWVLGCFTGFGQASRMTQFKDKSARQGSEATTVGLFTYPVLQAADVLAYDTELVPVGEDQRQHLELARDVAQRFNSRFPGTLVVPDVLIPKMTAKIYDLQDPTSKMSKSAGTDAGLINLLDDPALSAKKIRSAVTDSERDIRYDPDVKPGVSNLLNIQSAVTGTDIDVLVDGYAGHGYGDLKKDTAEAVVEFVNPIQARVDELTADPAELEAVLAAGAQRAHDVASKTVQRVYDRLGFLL

Turning to `CCCN(C(=O)c1ccccn1)c1nc2c(s1)CCc1c-2cnn1C`, the IC50 was > 50.1 µM on Lysine--tRNA ligase; > 100 µM in assay [1]; 27.3 µM and 35.3 µM in assay [2]; 18.7 µM and 14.4 µM at Histidine--tRNA ligase [3].
In the case of `COCCN(C)C(=O)Cn1cccc(OC)c1=O`, the IC50 (in assay [2]; on Histidine--tRNA ligase [3]) was > 100 µM throughout.
On to `CNc1nc2c(s1)C(c1c(F)cccc1Cl)CC(=O)N2` (stereo not drawn), for which the IC50 was > 50.1 µM against Lysine--tRNA ligase; 20.4 µM and 24.2 µM in [4]; 46.5 µM and 15.4 µM in assay [2]; 20.4 µM and 19.2 µM against Histidine--tRNA ligase [5]; 7.84 µM and 5.67 µM on Histidine--tRNA ligase [3].
`COCc1nc2cc(NCc3ccncc3)ccc2o1`: the IC50 was > 50.1 µM in assay [6]; 50.3 µM and 60.4 µM in assay [1]; 11.6 µM and 26.4 µM in assay [2]; 4.22 µM and 3.13 µM against Histidine--tRNA ligase [3].
As for `Cn1nc2c(cc1=O)CN(Cc1coc(-c3cccs3)n1)CC2`, the IC50 in [1] is > 100 µM; in [2], 51.7 µM and 65.4 µM; at Histidine--tRNA ligase [3], 13.1 µM and 11.1 µM.
Consider `Cc1ccc(-c2nc(CN3CCc4nn(C)c(=O)cc4C3)co2)cc1`, for which the IC50 in assay [1] is > 100 µM; in assay [2] it was > 100 µM and 52.7 µM; at Histidine--tRNA ligase [3] it was 14.2 µM and 25.1 µM.
`CCn1nc2c(cc1=O)CN(Cc1nc(-c3ccccn3)no1)CC2`: the IC50 is > 50.1 µM on Lysine--tRNA ligase; > 100 µM in [2]; 40 µM and 50.3 µM on Histidine--tRNA ligase [3].
In the case of `Cn1nc2c(cc1=O)CN(CC(=O)Nc1ccc(Cl)cn1)CC2`, the IC50 in [2] was 90 µM and > 100 µM; at Histidine--tRNA ligase [3] it was 19 µM and 22.2 µM. In addition, in the assay on Schistosoma mansoni, the “Percent Effect” value is on record as -19.3%.
Consider `Cn1nc2c(cc1=O)CN(Cc1nnc(C3CC3)o1)CC2`, for which the IC50 was > 30.2 µM in assay [6]; > 50.1 µM at Lysine--tRNA ligase; > 100 µM in [1]; 77.5 µM and > 100 µM in assay [2]; 17.5 µM and 14.6 µM at Histidine--tRNA ligase [3].
For `Cc1cc(CN2CCc3nn(C)c(=O)cc3C2)on1`, the IC50 against Lysine--tRNA ligase was > 50.1 µM; in assay [2], > 100 µM; on Tryptophan--tRNA ligase, > 195 µM; at Histidine--tRNA ligase [3], 35.6 µM and 40.1 µM. For the same molecule, the “Percent Effect” value in the assay on Schistosoma mansoni was -21.81%.
In the case of `Cn1nc2c(cc1=O)CN(Cc1nc(C(C)(C)C)no1)CC2`, the IC50 against Lysine--tRNA ligase was > 50.1 µM; in assay [2] it was > 100 µM; on Histidine--tRNA ligase [3], 25.4 µM and 17.9 µM.
For the molecule `COc1cccc(C2CC(=O)Nc3nc(N)sc32)c1OC` (stereo not drawn), the IC50 on Lysine--tRNA ligase is > 50.1 µM; in [4], 9.52 µM and 9.23 µM; in assay [1], 45.3 µM and 45 µM; in assay [2], 2.74 µM and 8.57 µM; against Histidine--tRNA ligase [5], 3.98 µM and 3.84 µM; against Histidine--tRNA ligase [3] it was 1.21 µM and 1.37 µM. Besides, the IC50 in assay [7] was 44.8 µM; in assay [8], 42.2 µM.
For the molecule `CCC(C)CNc1ccc2oc(COC)nc2c1` (stereo not drawn), the IC50 on Lysine--tRNA ligase was > 50.1 µM; in [1], > 100 µM; in assay [2], 36.7 µM and 47.3 µM; against Histidine--tRNA ligase [3], 11.1 µM and 14.1 µM; in assay [7], 34.4 µM; in assay [8], 49.1 µM.
Turning to `Cn1cc(NS(=O)(=O)c2ccc(OC(F)(F)F)cc2)ccc1=O`, the IC50 against Lysine--tRNA ligase is > 50.1 µM; in [2], 98.4 µM and 74.5 µM; against Histidine--tRNA ligase [3], 25.5 µM and 16.7 µM. Also, in assay [9], the negative-log IC50 (pIC50) (as a rule, the negative decadic logarithm of the IC50, by convention in mol/L) is 5.067 and 4.969.
Regarding `Cn1cc(NC(=O)N2CCC(c3ccccc3)CC2)ccc1=O`, the IC50 is > 50.1 µM at Lysine--tRNA ligase; > 100 µM in assay [1]; 13.6 µM and 15.7 µM in assay [2]; 63 µM and 58.7 µM on Histidine--tRNA ligase [5]; 2.98 µM and 3.9 µM against Histidine--tRNA ligase [3].
